# How the values were obtained:
# Assay type in all cases: cell-based
# [1] = tested on: TF-1 cells, CD33-target expressing; assay: In vitro cell assay, cell viability by MTS, TF-1; settings: Homo sapiens, TF-1, 96 h, read-out: Average IC50, TF-1
# Procedure: (§1) Her2-Target expressing (BT474 (breast cancer), N87 (gastric cancer), MDA-MB-361-DYT2 (breast cancer)) or Her2-non-expressing (MDA-MB-468, HT29) cells, or 0033-target expressing HL60, HEL92.1.7, NB4, TF-1 or 0033-non-expressing (Raji) cells were seeded in 96-well cell culture plates for 24 hours before treatment. Cells were treated with 3-fold serially diluted antibody-drug conjugates or free compounds (i.e., no antibody conjugated to the drug) in duplicate at 10 concentrations. Cell viability was determined by CellTiter 96® AQueous One Solution Cell Proliferation MTS Assay (Promega, Madison WI) 96 hours after treatment. Relative cell viability was determined as percentage of untreated control. IC50 values were calculated using a four parameter logistic model #203 with XLfit v4.2 (IDBS, Guildford, Surry, UK). Results are shown below in Table 3 (for payloads), Table 4 (for Herceptin conjugates), and Table 5 (for CD33 conjugates).
# [2] = tested on: HL60 cells, CD33-target expressing; assay: In vitro cell assay, cell viability by MTS, HL60; settings: Homo sapiens, HL-60, 96 h, read-out: Average IC50, HL-60
# Procedure: as §1
# [3] = tested on: MDA-MB-361-DYT2 (breast cancer) cells, Her2-target expressing; assay: In vitro cell assay, cell viability by MTS, MDA-MB-361-DYT2; settings: 96 h, read-out: Average IC50, MDA-MB-361-DYT2
# Procedure: as §1
# [4] = tested on: HT29 cells, Her2-non-expressing; assay: In vitro cell assay, cell viability by MTS, HT29; settings: Homo sapiens, HT-29, 96 h, read-out: Average IC50, HT29
# Procedure: as §1
# [5] = tested on: N87 (gastric cancer) cells, Her2-target expressing; assay: In vitro cell assay, cell viability by MTS, N87; settings: 96 h, read-out: Average IC50, N87
# Procedure: as §1
# [6] = tested on: Raji cells, CD33-non-expressing; assay: In vitro cell assay, cell viability by MTS, Raji; settings: Homo sapiens, 96 h, read-out: Average IC50, Raji
# Procedure: as §1
Structure (SMILES),IC50 [1] [nM],IC50 [2] [nM],IC50 [3] [nM],IC50 [4] [nM],IC50 [5] [nM],IC50 [6] [nM]
CCN[C@H]1CO[C@@H](O[C@H]2[C@H](O[C@H]3C#C/C=C\C#C[C@]4(O)CC(=O)C(NC(=O)OC)=C3/C4=C\CSSC(C)(C)CC(=O)N(C)C)O[C@H](C)[C@@H](NO[C@H]3C[C@H](O)[C@H](SC(=O)c4c(C)c(I)c(O[C@@H]5O[C@@H](C)[C@H](O)[C@@H](OC)[C@H]5O)c(OC)c4OC)[C@@H](C)O3)[C@@H]2O)C[C@@H]1OC [Example P31],0.084,0.011,0.032,0.01,0.051,0.008
CCN[C@H]1CO[C@@H](O[C@H]2[C@H](O[C@H]3C#C/C=C\C#C[C@]4(O)CC(=O)C(NC(=O)OC)=C3/C4=C\CSSC(C)(C)CC(=O)O)O[C@H](C)[C@@H](NO[C@H]3C[C@H](O)[C@H](SC(=O)c4c(C)c(I)c(O[C@@H]5O[C@@H](C)[C@H](O)[C@@H](OC)[C@H]5O)c(OC)c4OC)[C@@H](C)O3)[C@@H]2O)C[C@@H]1OC [Example P32],0.038,0.003,0.013,0.004,0.015,0.004
CCN[C@H]1CO[C@@H](O[C@H]2[C@H](O[C@H]3C#C/C=C\C#C[C@]4(O)CC(=O)C(NC(=O)OC)=C3/C4=C\CSSC(C)(C)[C@H](N)C(=O)O)O[C@H](C)[C@@H](NO[C@H]3C[C@H](O)[C@H](SC(=O)c4c(C)c(I)c(O[C@@H]5O[C@@H](C)[C@H](O)[C@@H](OC)[C@H]5O)c(OC)c4OC)[C@@H](C)O3)[C@@H]2O)C[C@@H]1OC [Example P33],1.09,0.205,1.5,0.386,1.66,0.261
CCN[C@H]1CO[C@@H](O[C@H]2[C@H](O[C@H]3C#C/C=C\C#C[C@]4(O)CC(=O)C(NC(=O)OC)=C3/C4=C\CSSC(C)(C)CNCCOc3ccccc3)O[C@H](C)[C@@H](NO[C@H]3C[C@H](O)[C@H](SC(=O)c4c(C)c(I)c(O[C@@H]5O[C@@H](C)[C@H](O)[C@@H](OC)[C@H]5O)c(OC)c4OC)[C@@H](C)O3)[C@@H]2O)C[C@@H]1OC [Example P36],6.86,0.881,3.85,1.28,6.2,1.13
CCN[C@H]1CO[C@@H](O[C@H]2[C@H](O[C@H]3C#C/C=C\C#C[C@]4(O)CC(=O)C(NC(=O)OC)=C3/C4=C\CSSC[C@H](NC(=O)CC[C@H](N)C(=O)O)C(=O)NCC(=O)O)O[C@H](C)[C@@H](NO[C@H]3C[C@H](O)[C@H](SC(=O)c4c(C)c(I)c(O[C@@H]5O[C@@H](C)[C@H](O)[C@@H](OC)[C@H]5O)c(OC)c4OC)[C@@H](C)O3)[C@@H]2O)C[C@@H]1OC [Example P14],–,–,15.6,2.22,2.73,–
CCN[C@H]1CO[C@@H](O[C@H]2[C@H](O[C@H]3C#C/C=C\C#C[C@]4(O)CC(=O)C(NC(=O)OC)=C3/C4=C\CSSC(C)C(=O)O)O[C@H](C)[C@@H](NO[C@H]3C[C@H](O)[C@H](SC(=O)c4c(C)c(I)c(O[C@@H]5O[C@@H](C)[C@H](O)[C@@H](OC)[C@H]5O)c(OC)c4OC)[C@@H](C)O3)[C@@H]2O)C[C@@H]1OC (mixture of isomers) [Example P9],–,–,1.89,0.334,0.392,–
CCN[C@H]1CO[C@@H](O[C@@H]2C(O)[C@H](NO[C@H]3C[C@H](O)[C@H](SC(=O)c4c(C)c(I)c(O[C@@H]5O[C@@H](C)[C@H](O)[C@@H](OC)[C@H]5O)c(OC)c4OC)[C@@H](C)O3)[C@@H](C)O[C@H]2O[C@H]2C#C/C=C\C#C[C@]3(O)CC(=O)C(NC(=O)OC)=C2/C3=C\CSSc2ccncc2)C[C@@H]1OC (stereo in doubt) [Example P44],1.48,0.127,> 10,1.26,0.418,0.171
CCNC1COC(OC2C(OC3C#C/C=C\C#C[C@]4(O)CC(=O)C(NC(=O)OC)=C3/C4=C\CSSC3CC3)OC(C)C(NOC3CC(O)C(SC(=O)c4c(C)c(I)c(OC5OC(C)C(O)C(OC)C5O)c(OC)c4OC)C(C)O3)C2O)CC1OC (stereo in doubt) [Example P18],0.093,0.005,0.017,0.005,0.033,0.003
CCN[C@H]1CO[C@@H](O[C@H]2[C@H](O[C@H]3C#C/C=C\C#C[C@]4(O)CC(=O)C(NC(=O)OC)=C3/C4=C\CSSC(C)(C)C#N)O[C@H](C)[C@@H](NO[C@H]3C[C@H](O)[C@H](SC(=O)c4c(C)c(I)c(O[C@@H]5O[C@@H](C)[C@H](O)[C@@H](OC)[C@H]5O)c(OC)c4OC)[C@@H](C)O3)[C@@H]2O)C[C@@H]1OC [Example P23],–,–,0.007,0.012,0.005,–
CCNC1COC(OC2C(OC3C#C/C=C\C#C[C@]4(O)CC(=O)C(NC(=O)OC)=C3/C4=C\CSSC3CCCC3)OC(C)C(NOC3CC(O)C(SC(=O)c4c(C)c(I)c(OC5OC(C)C(O)C(OC)C5O)c(OC)c4OC)C(C)O3)C2O)CC1OC (stereo in doubt) [Example P20],–,–,0.005,0.002,0.004,–
CCN[C@H]1CO[C@@H](O[C@H]2[C@H](O[C@H]3C#C/C=C\C#C[C@]4(O)CC(=O)C(NC(=O)OC)=C3/C4=C\CSSC3CCN(C(=O)OC(C)(C)C)CC3)O[C@H](C)[C@@H](NO[C@H]3C[C@H](O)[C@H](SC(=O)c4c(C)c(I)c(O[C@@H]5O[C@@H](C)[C@H](O)[C@@H](OC)[C@H]5O)c(OC)c4OC)[C@@H](C)O3)[C@@H]2O)C[C@@H]1OC [Example P17],–,–,0.152,0.501,2.38,–
CCN[C@H]1CO[C@@H](O[C@H]2[C@H](O[C@H]3C#CC=CC#C[C@]4(O)CC(=O)C(NC(=O)OC)=C3/C4=C\CSSC3CCC3)O[C@H](C)[C@@H](NO[C@H]3C[C@H](O)[C@H](SC(=O)c4c(C)c(I)c(O[C@@H]5O[C@@H](C)[C@H](O)[C@@H](OC)[C@H]5O)c(OC)c4OC)[C@@H](C)O3)[C@@H]2O)C[C@@H]1OC [Example P19],–,–,0.005,0.004,0.005,–
CCNC1COC(OC2C(OC3C#C/C=C\C#C[C@]4(O)CC(=O)C(NC(=O)OC)=C3/C4=C\CSSC3CCCCC3)OC(C)C(NOC3CC(O)C(SC(=O)c4c(C)c(I)c(OC5OC(C)C(O)C(OC)C5O)c(OC)c4OC)C(C)O3)C2O)CC1OC (stereo in doubt) [Example P21],–,–,0.064,0.012,0.013,–
CCN[C@H]1CO[C@@H](O[C@H]2[C@H](O[C@H]3C#C/C=C\C#C[C@]4(O)CC(=O)C(NC(=O)OC)=C3/C4=C\CSSC(C)(C)CC(N)=O)O[C@H](C)[C@@H](NO[C@H]3C[C@H](O)[C@H](SC(=O)c4c(C)c(I)c(O[C@@H]5O[C@@H](C)[C@H](O)[C@@H](OC)[C@H]5O)c(OC)c4OC)[C@@H](C)O3)[C@@H]2O)C[C@@H]1OC [Example P30],0.112,0.049,0.049,0.057,0.308,0.03
CCN[C@H]1CO[C@@H](O[C@H]2[C@H](O[C@H]3C#C/C=C\C#C[C@]4(O)CC(=O)C(NC(=O)OC)=C3/C4=C\CSSC34CC5CC(CC(C5)C3)C4)O[C@H](C)[C@@H](NO[C@H]3C[C@H](O)[C@H](SC(=O)c4c(C)c(I)c(O[C@@H]5O[C@@H](C)[C@H](O)[C@@H](OC)[C@H]5O)c(OC)c4OC)[C@@H](C)O3)[C@@H]2O)C[C@@H]1OC [Example P22],–,–,0.044,0.009,0.015,–
CCN[C@H]1CO[C@@H](O[C@H]2[C@H](O[C@H]3C#C/C=C\C#C[C@]4(O)CC(=O)C(NC(=O)OC)=C3/C4=C\CSSC3CCN(C)CC3)O[C@H](C)[C@@H](NO[C@H]3C[C@H](O)[C@H](SC(=O)c4c(C)c(I)c(O[C@@H]5O[C@@H](C)[C@H](O)[C@@H](OC)[C@H]5O)c(OC)c4OC)[C@@H](C)O3)[C@@H]2O)C[C@@H]1OC [Example P15],–,–,0.077,0.12,0.077,–
CCN[C@H]1CO[C@@H](O[C@H]2[C@H](O[C@H]3C#C/C=C\C#C[C@]4(O)CC(=O)C(NC(=O)OC)=C3/C4=C\CSSC(C)(C)CCNC(=O)[C@H](CCCNC(N)=O)NC(=O)[C@@H](NC(C)=O)C(C)C)O[C@H](C)[C@@H](NO[C@H]3C[C@H](O)[C@H](SC(=O)c4c(C)c(I)c(O[C@@H]5O[C@@H](C)[C@H](O)[C@@H](OC)[C@H]5O)c(OC)c4OC)[C@@H](C)O3)[C@@H]2O)C[C@@H]1OC [Example P35],7.5,2.25,2.34,3.67,14.7,2.1
CCN[C@H]1CO[C@@H](O[C@H]2[C@H](O[C@H]3C#C/C=C\C#C[C@]4(O)CC(=O)C(NC(=O)OC)=C3/C4=C\CSSC(C)(C)CCN)O[C@H](C)[C@@H](NO[C@H]3C[C@H](O)[C@H](SC(=O)c4c(C)c(I)c(O[C@@H]5O[C@@H](C)[C@H](O)[C@@H](OC)[C@H]5O)c(OC)c4OC)[C@@H](C)O3)[C@@H]2O)C[C@@H]1OC [Example P8],0.36,0.081,0.063,0.07,0.804,0.028

# From US20240409573A1, “CALICHEAMICIN DERIVATIVES AND ANTIBODY DRUG CONJUGATES THEREOF” (priority 2017, published 2024)
